{
  "source": "patent US11447500B2",
  "about": "“Thienopyridine derivatives and pharmaceutical composition comprising same” (WELLMARKER BIO CO., LTD., priority 2018, dated 2022)",
  "key": {"[1]": {"tested_on": "RON-mutated (Δ160) HT-29 colon cancer cell line", "test": "Cell killing efficacy, trypan blue exclusion assay, HT-29", "format": "cell-based", "conditions": "HT29 cell, 48 hours", "outline": "(§1)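 KM12C (MEM+10% FBS) and HT-29 (RPMI+10% FBS) cells, seeded 24 h earlier, exposed to compound at 1 μM or 5 μM for 48 h after medium change. Live and dead cells counted by trypan blue exclusion (n=2); cell death rate reported relative to a reference comparative compound.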"}, "RON kinase": {"target": "T1, RON kinase (Homo sapiens, UniProt Q04912)", "T1 construct": "purchased Carna Bioscience", "T1 sequence (Q04912 25-1400)": "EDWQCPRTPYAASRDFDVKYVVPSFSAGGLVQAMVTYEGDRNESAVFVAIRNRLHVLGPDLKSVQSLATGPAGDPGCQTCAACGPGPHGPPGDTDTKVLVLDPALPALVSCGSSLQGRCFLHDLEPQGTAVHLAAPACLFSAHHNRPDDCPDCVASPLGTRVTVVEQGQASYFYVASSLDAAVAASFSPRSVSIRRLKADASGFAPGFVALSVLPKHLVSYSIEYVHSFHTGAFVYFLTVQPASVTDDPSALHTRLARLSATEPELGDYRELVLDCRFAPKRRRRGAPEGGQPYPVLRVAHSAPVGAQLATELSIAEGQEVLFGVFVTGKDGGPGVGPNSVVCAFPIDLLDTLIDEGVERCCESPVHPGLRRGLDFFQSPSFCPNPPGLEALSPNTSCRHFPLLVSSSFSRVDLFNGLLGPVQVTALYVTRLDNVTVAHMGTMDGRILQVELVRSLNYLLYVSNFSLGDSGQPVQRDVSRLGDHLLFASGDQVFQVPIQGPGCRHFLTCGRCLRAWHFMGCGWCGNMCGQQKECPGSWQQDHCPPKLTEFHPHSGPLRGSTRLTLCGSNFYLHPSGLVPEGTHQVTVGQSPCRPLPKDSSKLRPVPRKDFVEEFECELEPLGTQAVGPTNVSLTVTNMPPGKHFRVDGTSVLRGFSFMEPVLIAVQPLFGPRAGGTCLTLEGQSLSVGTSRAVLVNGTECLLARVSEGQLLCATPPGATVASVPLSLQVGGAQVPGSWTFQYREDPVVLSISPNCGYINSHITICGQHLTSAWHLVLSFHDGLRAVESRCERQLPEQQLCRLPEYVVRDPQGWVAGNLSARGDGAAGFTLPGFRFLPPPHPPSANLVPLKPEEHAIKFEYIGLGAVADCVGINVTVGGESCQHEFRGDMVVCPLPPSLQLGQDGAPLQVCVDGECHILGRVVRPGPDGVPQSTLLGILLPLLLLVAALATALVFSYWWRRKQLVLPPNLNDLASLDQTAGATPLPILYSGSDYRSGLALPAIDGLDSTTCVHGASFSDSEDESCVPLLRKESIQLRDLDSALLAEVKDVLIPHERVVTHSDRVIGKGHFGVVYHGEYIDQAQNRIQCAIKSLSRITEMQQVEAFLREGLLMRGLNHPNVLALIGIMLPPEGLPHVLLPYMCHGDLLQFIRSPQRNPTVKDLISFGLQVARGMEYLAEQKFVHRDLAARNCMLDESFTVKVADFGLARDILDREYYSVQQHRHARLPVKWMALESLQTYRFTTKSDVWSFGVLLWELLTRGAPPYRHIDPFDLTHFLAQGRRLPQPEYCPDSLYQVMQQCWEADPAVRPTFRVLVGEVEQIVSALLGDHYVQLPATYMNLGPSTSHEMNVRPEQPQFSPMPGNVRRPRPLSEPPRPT", "test": "RON kinase enzyme inhibitory activity, FRET (TR-FRET) technique", "format": "biochemical", "conditions": "60 min reaction", "outline": "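RON kinase (2× stock 0.4 nM) was preincubated 15 min with compound in HEPES pH 7.5/MgCl2 buffer, then reacted 60 min at room temperature with ATP (4× stock 60 μM) and tyrosine peptide substrate (4× stock 400 nM). The reaction was stopped with EDTA plus Eu-anti-phosphotyrosine antibody and read by TR-FRET (ex 340, em 620/665 nm). IC50 came from 665 nm emission versus concentration.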"}, "[2]": {"tested_on": "RON-activated KM12C colon cancer cell line", "test": "Cell killing efficacy, trypan blue exclusion assay, KM12C", "format": "cell-based", "conditions": "48 hours", "outline": "as §1"}, "KM12C cells": {"tested_on": "KM12C cells", "test": "Cytotoxicity MTS assay, KM12C", "format": "cell-based", "conditions": "Homo sapiens, 72 hours", "procedure": "(§2) In order to confirm the specific cytotoxicity of the drugs, the cultured cells were treated with 0.05% trypsin/EDTA (0.5% trypsin EDTA (10×), Product No.: 15400-054, GIBCO) to detach them from the culture dish, and 3,000 cells (KM12C) or 2,000 cells (HT29, Colo 320 HSR) were dispensed into each well.\n(§3) After 24 hours, sample compounds were dissolved in DMSO (Product No.: D8418-250ML, SIGMA) to make 10 mM stock solutions. As the sample compounds, the compounds synthesized in the examples of the present invention and the compounds of the comparative examples were used.\n(§4) The cells were treated with the sample compound dilutions, and cultured in a 5% CO2 incubator at 37° C. for 72 hours.\n(§5) Thereafter, 20 μL of MTS solution (CellTiter™ 96 Aqueous One Solution Cell Proliferation Assay, Product No.: G3581, Promega) was dispensed into each well and mixed well, and the cells were incubated for 1 to 4 hours at 37° C. in a 5% CO2 incubator."}, "HT29 cells": {"tested_on": "HT29 cells", "test": "Cytotoxicity MTS assay, HT29", "format": "cell-based", "conditions": "Homo sapiens, HT-29, 72 hours", "procedure": "as §2, §3, §4, §5"}},
  "data": [
    {"smiles": "CCOc1ccn(-c2ccc(F)cc2)c(=O)c1C(=O)Nc1ccc(Oc2ccnc3cc(-c4ccc(CN5CCOCC5)cn4)sc23)c(F)c1.Cl", "note": "[Example 31, 4-ethoxy-N-[3-fluoro-4-({2-[5-(morpholinomethyl)pyridin-2-yl]thieno[3,2-b]pyridin-7-yl}oxy)phenyl]-1-(4-fluorophenyl)-2-oxo-1,2-dihydropyridine-3-carboxamide Hydrochloride]", "values": [
      {"measurement": "Cell death rate (Relative to Comp. Ex. 1)", "setting": "[1]; 1 μM", "value": "x 2.11"},
      {"measurement": "Cell death rate (Relative to Comp. Ex. 1)", "setting": "[1]; 5 μM", "value": "x 1.21"},
      {"measurement": "IC50", "setting": "RON kinase", "value": 0.39, "unit": "nM"},
      {"measurement": "Cell death rate (Relative to Comp. Ex. 1)", "setting": "[2]; 1 μM", "value": "x 1.52"},
      {"measurement": "Cell death rate (Relative to Comp. Ex. 1)", "setting": "[2]; 5 μM", "value": "x 1.17"},
      {"measurement": "IC50", "setting": "KM12C cells", "value": 7, "unit": "nM"},
      {"measurement": "IC50", "setting": "HT29 cells", "value": 609, "unit": "nM"}
    ]},
    {"smiles": "CCOc1ccn(-c2ccccc2)c(=O)c1C(=O)Nc1ccc(Oc2ccnc3cc(-c4ccc(CN5CCOCC5)cn4)sc23)c(F)c1.Cl", "note": "[Example 32, 4-ethoxy-N-[3-fluoro-4-({2-[5-(morpholinomethyl)pyridin-2-yl]thieno[3,2-b]pyridin-7-yl}oxy)phenyl]-2-oxo-1-phenyl-1,2-dihydropyridine-3-carboxamide Hydrochloride]", "values": [
      {"measurement": "Cell death rate (Relative to Comp. Ex. 1)", "setting": "[1]; 1 μM", "value": "x 1.55"},
      {"measurement": "Cell death rate (Relative to Comp. Ex. 1)", "setting": "[1]; 5 μM", "value": "x 1.45"},
      {"measurement": "IC50", "setting": "RON kinase", "value": 0.81, "unit": "nM"},
      {"measurement": "Cell death rate (Relative to Comp. Ex. 1)", "setting": "[2]; 1 μM", "value": "x 1.52"},
      {"measurement": "Cell death rate (Relative to Comp. Ex. 1)", "setting": "[2]; 5 μM", "value": "x 1.11"},
      {"measurement": "IC50", "setting": "KM12C cells", "value": 3, "unit": "nM"},
      {"measurement": "IC50", "setting": "HT29 cells", "value": 325, "unit": "nM"}
    ]},
    {"smiles": "CCOc1ccn(-c2ccc(F)cc2)c(=O)c1C(=O)Nc1ccc(Oc2ccnc3cc(-c4ccc(CN5CCN(C)CC5)cn4)sc23)c(F)c1.Cl", "note": "[Example 33, 4-ethoxy-N-{3-fluoro-4-[(2-{5-[(4-methylpiperazin-1-yl)methyl]pyridin-2-yl}thieno[3,2-b]pyridin-7-yl)oxy]phenyl}-1-(4-fluorophenyl)-2-oxo-1,2-dihydropyridine-3-carboxamide Hydrochloride]", "values": [
      {"measurement": "Cell death rate (Relative to Comp. Ex. 1)", "setting": "[1]; 1 μM", "value": "x 2.01"},
      {"measurement": "Cell death rate (Relative to Comp. Ex. 1)", "setting": "[1]; 5 μM", "value": "x 1.50"},
      {"measurement": "IC50", "setting": "RON kinase", "value": 0.26, "unit": "nM"},
      {"measurement": "Cell death rate (Relative to Comp. Ex. 1)", "setting": "[2]; 1 μM", "value": "x 1.99"},
      {"measurement": "Cell death rate (Relative to Comp. Ex. 1)", "setting": "[2]; 5 μM", "value": "x 2.13"},
      {"measurement": "IC50", "setting": "KM12C cells", "value": 9, "unit": "nM"},
      {"measurement": "IC50", "setting": "HT29 cells", "value": 335, "unit": "nM"}
    ]}
  ]
}
